These results are taken from patent publication US12123010B2, “Plants having increased tolerance to herbicides” (BASF SE, priority 2017, dated 2024).

The test system of assay [1] is Transgenic T2 Arabidopsis plants and ARBTH WT MC24 non-transgenic. The assay is described as follows: Greenhouse post spray test, injury 14 DAT (Tables ii, iii).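 Further: value is percent injury to the sprayed plants.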 Format: in vivo, Arabidopsis thaliana. Conditions: Arabidopsis thaliana, 336 h, Table ii.
Assay [2] concerns Transgenic T2 Arabidopsis plants harboring PPO inhibitor tolerance trait. The assay is described as follows: Lab based germination assay in 48-well plates (Table i). Format: in vivo, Arabidopsis thaliana. To be noted: construct AMATU_PPO2_TP_hemG (Escherichia coli); in comparison to wild type plants.
Assay [3] concerns the target Wild Type PPO Enzyme (Amaranthus PPO2, SEQ ID NO: 1) (Amaranthus tuberculatus, UniProt Q0NZW9). The assay is described as follows: PPO enzyme assay (recombinant), wild type. It is filed as biochemical.
Assay [4] relates to Variant PPO Enzyme R128A, F420V (Amaranthus PPO2). Description: biochemical. Format: biochemical. Conditions: variant R128A, F420V vs wild type.
The subject of assay [5] is Variant PPO Enzyme F420M (Amaranthus PPO2). The assay is described as follows: biochemical. It is filed as biochemical. To be noted: variant F420M vs wild type.
Setting [6] is: AMATU_PPO2_WT event Q, 1 g ai/ha.
[7] abbreviates: AMATU_PPO2_WT event Q, 5 g ai/ha.
[8] abbreviates: AMATU_PPO2_WT event Q, 10 g ai/ha.
Where [9] appears, read: AMATU_PPO2_WT event Q, 30 g ai/ha.
Where [10] appears, read: ARBTH WT MC24 non-transgenic, 1 g ai/ha + 1% MSO.
Setting [11] is: ARBTH WT MC24 non-transgenic, 5 g ai/ha + 1% MSO.
Setting [12] is: ARBTH WT MC24 non-transgenic, 10 g ai/ha + 1% MSO.
[13] abbreviates: ARBTH WT MC24 non-transgenic, 30 g ai/ha + 1% MSO.
[14] abbreviates: ARBTH WT MC24 non-transgenic, 80 g ai/ha + 1% MSO.
[15] abbreviates: ARBTH_PPO1_S305L_Y426M event O, 5 g ai/ha.
Setting [16] is: ARBTH_PPO1_S305L_Y426M event O, 10 g ai/ha.
Where [17] appears, read: ARBTH_PPO1_S305L_Y426M event O, 30 g ai/ha.
Where [18] appears, read: ARBTH_PPO1_S305L_Y426M event O, 80 g ai/ha.
Setting [19] is: ARBTH_PPO1_WT event Q, 1 g ai/ha.
The mark [20] stands for this setting: ARBTH_PPO1_WT event Q, 5 g ai/ha.
Where [21] appears, read: ARBTH_PPO1_WT event Q, 10 g ai/ha.
Setting [22] is: ARBTH_PPO1_WT event Q, 30 g ai/ha.

Chain of Wild Type PPO Enzyme (Amaranthus PPO2, SEQ ID NO: 1) (Q0NZW9 1-534): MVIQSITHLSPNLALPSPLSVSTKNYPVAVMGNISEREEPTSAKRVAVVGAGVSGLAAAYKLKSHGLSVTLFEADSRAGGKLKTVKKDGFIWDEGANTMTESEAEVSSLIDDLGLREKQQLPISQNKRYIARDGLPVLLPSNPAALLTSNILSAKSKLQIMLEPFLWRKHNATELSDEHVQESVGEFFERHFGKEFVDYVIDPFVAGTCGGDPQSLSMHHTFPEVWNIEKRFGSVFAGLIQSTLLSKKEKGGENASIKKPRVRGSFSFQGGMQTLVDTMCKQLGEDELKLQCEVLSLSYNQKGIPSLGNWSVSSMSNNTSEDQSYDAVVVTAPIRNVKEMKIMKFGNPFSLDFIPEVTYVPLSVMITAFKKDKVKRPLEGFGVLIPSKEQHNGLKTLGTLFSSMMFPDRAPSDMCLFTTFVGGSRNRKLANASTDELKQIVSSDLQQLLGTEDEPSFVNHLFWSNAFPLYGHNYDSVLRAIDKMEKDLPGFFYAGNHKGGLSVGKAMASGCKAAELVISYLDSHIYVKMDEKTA

Take `Cn1c(C(F)(F)F)cc(=O)n(-c2nc(Oc3ccccc3OCC(=O)O)c(Cl)cc2F)c1=O` [Uracilpyridine 5, 2-[2-[[3-chloro-5-fluoro-6-[3-methyl-2,6-dioxo-4-(trifluoromethyl)pyrimidin-1-yl]-2-pyridyl]oxy]phenoxy]acetic acid]: the figures for the pest or weed control at 1 g/ha in assay [1] (setting [6]), in assay [1] (setting [10]) and in assay [1] (setting [19]) were 28%, 100% and 45%, respectively. The pest or weed control at 5 g/ha in assay [1] (setting [7]) turned out to be 90%; in assay [1] (setting [11]), 100%; in assay [1] (setting [15]), 0%; in assay [1] (setting [20]), 90%. Also, the pest or weed control at 10 g/ha in assay [1] (setting [8]) was 100%; in assay [1] (setting [12]), 100%; in assay [1] (setting [16]), 0%; in assay [1] (setting [21]), 99%. The pest or weed control at 30 g/ha came out at 100% in assay [1] (setting [9]), 100% in assay [1] (setting [13]), 68% in assay [1] (setting [17]) and 100% in assay [1] (setting [22]). For the same compound, the pest or weed control at 80 g/ha in assay [1] (setting [14]) was found to be 100%; in assay [1] (setting [18]), 73%. Besides, the “Tolerance Factor” value in assay [2] was 1400.

Consider `CCOC(=O)COc1ccccc1Oc1nc(-n2c(=O)cc(C(F)(F)F)n(C)c2=O)c(F)cc1F` [Uracilpyridine 8, ethyl 2-[2-[[3,5-difluoro-6-[3-methyl-2,6-dioxo-4-(trifluoromethyl)pyrimidin-1-yl]-2-pyridyl]oxy]phenoxy]acetate], for which the IC50 in assay [3] worked out at 0.496 nM. Moreover, the pest or weed control at 1 g/ha is 10% in assay [1] (setting [6]), 88% in assay [1] (setting [10]) and 10% in assay [1] (setting [19]). Also, the pest or weed control at 5 g/ha in assay [1] (setting [7]) stood at 55%; in assay [1] (setting [11]), 100%; in assay [1] (setting [15]), 0%; in assay [1] (setting [20]), 30%. The pest or weed control at 10 g/ha in assay [1] (setting [8]) was 100%; in assay [1] (setting [12]), 100%; in assay [1] (setting [16]), 0%; in assay [1] (setting [21]), 55%. For the same compound, the pest or weed control at 30 g/ha in assay [1] (setting [9]) came out at 100%; in assay [1] (setting [13]), 100%; in assay [1] (setting [17]), 0%; in assay [1] (setting [22]), 100%. Further, the pest or weed control at 80 g/ha in assay [1] (setting [14]) came out at 100%; in assay [1] (setting [18]) it was 0%. The results for the “Tolerance Factor (R/S)” value in assay [4] and in assay [5] were 4531 and 139, respectively. Moreover, the “Tolerance Factor” value in assay [2] came out at 8202.

Regarding `Cn1c(C(F)(F)F)cc(=O)n(-c2nc(Oc3ccccc3OCC(=O)O)c(F)cc2F)c1=O` [Uracilpyridine 9, 2-[2-[[3,5-difluoro-6-[3-methyl-2,6-dioxo-4-(trifluoromethyl)pyrimidin-1-yl]-2-pyridyl]oxy]phenoxy]acetic acid], the figures for the pest or weed control at 1 g/ha in assay [1] (setting [6]), in assay [1] (setting [10]) and in assay [1] (setting [19]) were 38%, 85% and 10%, respectively. Besides, the pest or weed control at 5 g/ha in assay [1] (setting [7]) was 68%; in assay [1] (setting [11]), 100%; in assay [1] (setting [15]) it was 0%; in assay [1] (setting [20]), 50%. The pest or weed control at 10 g/ha in assay [1] (setting [8]) was determined as 100%; in assay [1] (setting [12]) it was 100%; in assay [1] (setting [16]), 0%; in assay [1] (setting [21]) it was 70%. Further, the pest or weed control at 30 g/ha in assay [1] (setting [9]) came out at 100%; in assay [1] (setting [13]), 100%; in assay [1] (setting [17]), 0%; in assay [1] (setting [22]), 98%. Moreover, the pest or weed control at 80 g/ha in assay [1] (setting [14]) was 100%; in assay [1] (setting [18]), 0%. Besides, in assay [2], the “Tolerance Factor” value was determined as 1600.
